“Also recorded” adds a separate entry of the source.
What was measured:
gastric ulceration = assay: NSAID-induced gastric ulceration in rats (surface area of ulceration); type: in vivo, rat (male Sprague-Dawley); details: 4 h
Procedure: Male Sprague-Dawley rats (Charles River, Wilmington, Mass.) weighing 300-325 g were housed individually in wire bottomed cages to prevent ingestion of hair and feces. […] Piroxicam or aspirin and other NSAIDS were suspended in a vehicle of 1% carboxymethylcellulose, 0.1% Tween 80 and 0.15 M HCl, and administered in a volume of 1 ml on the morning of study by oral gavage using an 18 gauge curved blunt needle (Popper and Sons, New Hyde Park, N.Y.). One ml of vehicle alone was administered for control experiments. HCl was added to the vehicle to insure an acid environment in the stomach in all studies. […] Four hours after the administration of NSAID or vehicle, rats were euthanized with sodium pentobarbital (100 mg/kg IP), and the surface area of ulceration per stomach was quantitated using morphometric techniques. Stomachs were removed, the lumen was exposed by an incision along the radius of greater curvature, and the stomach was washed in phosphate buffered saline. The luminal surface was laid out on a flat surface with gross folds removed by gentle distension. The percentage of surface involved with submucosal hemorrhage was then determined by point counting, as described by Weibel, E. R. Stereological Methods: Practical Methods for Biological Morphometry. […] This was done by tabulation of the percentage of points over ulcerations using a point counting eyepiece graticle (16×16 points in a square format). At the 12X magnification used on the Wild dissecting microscope (Wild-Heerbrugg, Basel, Switzerland), the graticle covered a 1 cm^2 area of the surface. Four to five non-overlapping sampling sites were taken to fully cover the exposed surface. To determine the total luminal surface area, the outline of the outer boundary of the stomach was traced using a transparent acetate sheet, and the area was determined from planimetry. The surface area of ulcerated regions per stomach was then determined by multiplying the surface density of ulceration regions by the luminal surface area of the stomach.
Differences in total luminal surface area in cm^2, surface area of ulcerated regions per stomach and biochemical analyses between each treatment intervention and its corresponding untreated control group are compared using the Mann-Whitney U Test, Dixon, W. J., Massey, F. J., Jr. Introduction to statistical methods, 4th edition. […] In vitro studies are compared using the Student's unpaired T-test, Dixon, W. J., Massey, F. J., Jr. Introduction to statistical methods, 4th edition. […] Values are expressed as mean±SEM. Significance is assumed when P<0.05.
Phenyl N-tert-butyl nitrone is obtained from Aldrich Chemicals, Milwaukee, Wis. All other chemicals and pharmaceuticals are from Sigma Chemical.

[1] = tested on: gastric biopsies (lipid peroxidation); assay: lipid peroxidation in stomachs (thiobarbituric acid reactivity of gastric punch biopsies); type: in vivo, rat; details: 4 h after piroxicam, P<0.05 vs vehicle (0.075±0.004)
From the text: MEASUREMENT OF LIPID PEROXIDATION IN STOMACHS. Lipid peroxidation is studied in piroxicam-and vehicle-treated rat stomachs by measuring thiobarbituric acid (TBA) reactivity of gastric punch biopsies by the method of Buege and Aust Buege, J. A., Aust, S. D. Methods Enzymol 51:302-310 (1978). Four hours after piroxicam or vehicle, stomachs are opened along the radius of greater curvature, washed with ice cold normal saline, and spread along a flat surface with lumens exposed. Five punch biopsies from mucosal through serosal surfaces are taken from each stomach using a 3 mm diameter skin biopsy punch. Biopsies are taken over ulcers in piroxicam treated stomachs and randomly over gastric rugae (where ulcers occur) in vehicle control stomachs. Biopsies from each stomach are combined, homogenized on ice in 1 ml of cold 1.15% KCl, and mixed with 2 ml of TBA reagent (0.375% thiobarbituric acid and 15% trichloroacetic acid in 0.25 HCl, to which 0.01% butylated hydroxytoluene is added just prior to use). After incubation at 100° C. for 15 minutes, the mixture is cooled and centrifuged at 1,500 g for 10 min. The absorbance of the supernatant is measured at 532 nm, and results expressed as […] per stomach.

[2] = tested on: Xanthine dehydrogenase (XDH) and oxidase (XO); assay: gastric xanthine dehydrogenase and oxidase activity; type: in vivo, rat; details: whole stomach, piroxicam treated
Procedure: MEASUREMENT OF GASTRIC XANTHINE OXIDASE ACTIVITY. Xanthine dehydrogenase (XDH) and oxidase (XO) activities are measured in whole stomach from piroxicam-treated and vehicle-treated rats, using methods reported by Parks, et. al. […]. 254 (Gastrointest Liver Physiol 17): […]-[…] (1988). The artifactual conversion of XDH to XO is minimized by quickly removing stomachs from rats that were anesthetized with 50 mg/kg sodium pentobarbital and still breathing spontaneously. After gastrectomy, the rats are euthanized by cutting the abdominal aorta. Stomachs are quickly rinsed in an ice cold homogenizing buffer consisting of 50 mM potassium phosphate buffer, pH 7.0, containing 10 mM dithiothreitol (DTT), 1 mM phenylmethylsulfonyl fluoride (PMSF) and 0.1 mM EDTA. The stomach is then immediately immersed in liquid nitrogen and ground to a fine powder under liquid nitrogen using a mortar and pestle. About 0.5 g of frozen powder is added to 5 ml of homogenizing buffer and centrifuged 40,000 g for 30 min. The supernatant is decanted and microfuged for an additional 10 min. […] To increase reaction rates activity was measured at 30 rather than 25° C. […] XO is assayed in the absence in NAD+, while XDH+XO activity is measured in the presence of 500 μM NAD+. […] The extent of XDH conversion (% XO) is calculated from XO activity divided by XDH+XO activity.

[3] = tested on: mitochondrial respiration; assay: generation of O2- by mitochondrial respiration; type: biochemical, rat
[4] = tested on: microsomal lipid peroxidation; assay: microsomal lipid peroxidation (liver microsomes); type: biochemical; details: 200 μM piroxicam, rat liver microsomes
Procedure: Studies of Microsomal Lipid Peroxidation. […] Rats are euthanized by CO2 narcosis. The livers are excised rapidly into cold isolation medium containing 0.1M sodium phosphate and 2 mM EDTA, pH 7.4. The tissue is minced and homogenized in 3 ml isolation medium per gram of tissue using a Potter-Elvehjam homogenizer. The homogenate is centrifuged at 17,800 g for 20 min., and the pellet discarded. The supernatant is recentrifuged at 100,000 g for 60 min. The resulting pellet is resuspended in isolation buffer and recentrifuged at 100,000 g for 40 min. The final pellet is resuspended in storage buffer containing 100 mM potassium phosphate, 20% glycerol, 1 mM EDTA, 1 mM DTT and 20 μM butylated hydroxytoluene, pH 7.25. This suspension is frozen under liquid nitrogen and stored at -70° CL until use. Microsomal protein is determined by a modification of the Lowry method of Anderson, M. E. Methods Enzymol 113:548-555 (1985). […] Lipid peroxidation in the 1 ml reaction mixture is measured by mixing with 2 ml TBA reagent and assaying for thiobarbituric acid reactivity by the method of Buege and Aust. Values are expressed as the increase in absorbance at 532 nm ([MUT]) per mg microsomal protein and represent the mean of three replicates.

## CN1C(C(=O)Nc2ccccn2)=C(O)c2ccccc2S1(=O)=O [piroxicam]
Gastric ulceration; oral gavage, 23 mg/kg piroxicam, vs vehicle, 23 mg/kg
  gastric ulceration, in words: prominent ulceration along the ridges of gastric rugae; also recorded: consistently produced ulceration; also recorded: profound gastric ulceration
Gastric ulceration; piroxicam 23 mg/kg p.o., absence of an intervention
  mean ulceration in piroxicam-treated control stomachs: 0.215 cm^2
[1]
  thiobarbituric acid reactivity, A532: 0.104±0.010 A532
[2]
  XO as % of total XDH+XO activity: 45±3%
[2]; vehicle 31.6±2.45 mU/g
  total XDH+XO activity: 30.5±1.6 mU/g
[3]
  generation of O2- by mitochondrial respiration: did not increase generation of O2 -
[4]
  NADPH-dependent microsomal lipid peroxidation: no effect
